Assay results as given in patent US10696693B2, “Fused imidazole derivatives as TGF-beta inhibitors” (Rigel Pharmaceuticals, Inc., priority 2014, dated 2020).
Like-named read-outs stand apart in the source and are kept apart here.

Assays:
[1] = test system: GDF8; test: AlphaScreen SureFire p-SMAD3 (Ser423/425) assay, GDF8-stimulated cells; type: cell-based; details: Mus musculus
In short: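 A SureFire AlphaScreen assay measured phosphorylation of endogenous SMAD-3 at Ser423/425 in cell lysates. Cells were treated with three-fold serially diluted compounds in DMSO for about 10 minutes, then stimulated with GDF8. After medium removal, cells were lysed in 1× Lysis Buffer (about 25 μL) with gentle shaking for 5-10 minutes.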

[2] = test system: TGF-β; test: AlphaScreen SureFire p-SMAD3 (Ser423/425) assay, TGF-β-stimulated cells; type: cell-based; details: Mus musculus
In short: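 The p-SMAD-3 (Ser423/425) SureFire assay measured phosphorylation of endogenous SMAD-3 in cell lysates. Cells were plated overnight in collagen-coated plates, exposed to three-fold serially diluted compounds for about 10 minutes, then stimulated with TGFβ. Lysates (5 μL) received acceptor bead mix for 2 hours, then donor beads for 1½ hours before AlphaScreen reading.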

[3] = MPC-11, p-SMAD3 (Ser423/425) AlphaScreen in cell lysate, MPC11, GDF8 stimulation, read-out: GDF8: inhibition of GDF8 signaling, GDF pSMAD (MPC11)
[4] = p-SMAD3 (Ser423/425) AlphaScreen in cell lysate, MPC-11, TGF-β stimulation, read-out: TGF-β: inhibition of TGF-β signaling, TGF-β pSMAD (MPC-11)

Fc1cc(F)c(-c2nc3n(c2-c2ccc4ncnn4c2)CCN3)cc1F [Compound 105, 6-(6-(2,4,5-trifluorophenyl)-2,3-dihydro-1H-imidazo[1,2-a]imidazol-5-yl)-[1,2,4]triazolo[1,5-a]pyridine]
IC50 [1, 3]: < 50 nM
IC50 [2, 4]: < 50 nM

Fc1cc(F)c(-c2nc3n(c2-c2ccc4nccnc4c2)CCN3)cc1F [Compound 106, 6-(6-(2,4,5-trifluorophenyl)-2,3-dihydro-1H-imidazo[1,2-a]imidazol-5-yl)quinoxaline]
IC50 [1, 3]: < 50 nM
IC50 [2, 4]: < 50 nM

Fc1cc(F)c(-c2nc3n(c2-c2ccc4ncccc4c2)CCN3)cc1F [Compound 107, 6-(6-(2,4,5-trifluorophenyl)-2,3-dihydro-1H-imidazo[1,2-a]imidazol-5-yl)quinoline]
IC50 [1, 3]: < 50 nM
IC50 [2, 4]: < 50 nM

Fc1cc(F)c(-c2nc3n(c2-c2ccc4nccn4c2)CCN3)cc1F [Compound 108, 6-(6-(2,4,5-trifluorophenyl)-2,3-dihydro-1H-imidazo[1,2-a]imidazol-5-yl)imidazo[1,2-a]pyridine]
IC50 [1, 3]: < 50 nM
IC50 [2, 4]: < 50 nM

CC(=O)N1CCn2c1nc(-c1cc(F)cc(F)c1F)c2-c1ccc2ncnn2c1 [Compound 109, 1-(5-([1,2,4]triazolo[1,5-a]pyridin-6-yl)-6-(2,3,5-trifluorophenyl)-2,3-dihydro-1H-imidazo[1,2-a]imidazol-1-yl)ethan-1-one]
IC50 [1, 3]: < 50 nM
IC50 [2, 4]: < 50 nM

Fc1cc(F)c(F)c(-c2nc3n(c2-c2ccc4ncccc4c2)CCN3)c1 [Compound 110, 6-(6-(2,3,5-trifluorophenyl)-2,3-dihydro-1H-imidazo[1,2-a]imidazol-5-yl)quinoline]
IC50 [1, 3]: < 50 nM
IC50 [2, 4]: < 50 nM

Fc1cc(F)c(F)c(-c2nc3n(c2-c2ccc4nccnc4c2)CCN3)c1 [Compound 111, 6-(6-(2,3,5-trifluorophenyl)-2,3-dihydro-1H-imidazo[1,2-a]imidazol-5-yl)quinoxaline]
IC50 [1, 3]: < 50 nM
IC50 [2, 4]: < 50 nM

Fc1cc(F)c(F)c(-c2nc3n(c2-c2cc4cnccc4s2)CCN3)c1 [Compound 112, 2-(6-(2,3,5-trifluorophenyl)-2,3-dihydro-1H-imidazo[1,2-a]imidazol-5-yl)thieno[3,2-c]pyridine]
IC50 [1, 3]: < 50 nM
IC50 [2, 4]: < 50 nM

Nc1ncnc2ccc(-c3c(-c4cc(F)cc(F)c4F)nc4n3CCN4)cc12 [Compound 113, 6-(6-(2,3,5-trifluorophenyl)-2,3-dihydro-1H-imidazo[1,2-a]imidazol-5-yl)quinazolin-4-amine]
IC50 [1, 3]: 50 to 100 nM
IC50 [2, 4]: 50 to 100 nM

COCCOc1cnc2ccc(-c3c(-c4cc(F)c(F)cc4F)nc4n3CCN4)cc2n1 [Compound 115, 2-(2-methoxyethoxy)-7-(6-(2,4,5-trifluorophenyl)-2,3-dihydro-1H-imidazo[1,2-a]imidazol-5-yl)quinoxaline]
IC50 [1, 3]: 100 to 1000 nM
IC50 [2, 4]: 100 to 1000 nM

Fc1cc(F)c(-c2nc3n(c2-c2cc4cnccc4s2)CCN3)cc1F [Compound 116, 2-(6-(2,4,5-trifluorophenyl)-2,3-dihydro-1H-imidazo[1,2-a]imidazol-5-yl)thieno[3,2-c]pyridine]
IC50 [1, 3]: < 50 nM
IC50 [2, 4]: < 50 nM

COCCOc1cnc2ccc(-c3c(-c4cc(F)cc(F)c4F)nc4n3CCN4)cc2n1 [Compound 117, 2-(2-methoxyethoxy)-7-(2-(2,3,5-trifluorophenyl)-5,6-dihydro-7λ^2-imidazo[3,2-a]imidazol-3-yl)quinoxaline]
IC50 ([1]; MPC-11, read-out: GDF8: inhibition of GDF8 signaling, GDF pSMAD (MPC11), p-SMAD3 (Ser423/425) AlphaScreen in cell lysate, GDF8 stimulation): 100 to 1000 nM
IC50 ([2]; MPC-11, read-out: TGF-β: inhibition of TGF-β signaling, TGF-β pSMAD (MPC-11), p-SMAD3 (Ser423/425) AlphaScreen in cell lysate, TGF-β stimulation): > 1000 nM

O=C(O)C1Cn2c(nc(-c3cc(F)cc(F)c3F)c2-c2ccc3ncnn3c2)N1 (centres unmarked) [Compound 118, 5-([1,2,4]triazolo[1,5-a]pyridin-6-yl)-6-(2,3,5-trifluorophenyl)-2,3-dihydro-1H-imidazo[1,2-a]imidazole-2-carboxylic acid]
IC50 [1, 3]: < 50 nM
IC50 [2, 4]: < 50 nM

CC(=O)N1c2nc(-c3cc(F)cc(F)c3F)c(-c3ccc4ncnn4c3)n2CC1C(=O)O (centres unmarked) [Compound 119, 5-([1,2,4]triazolo[1,5-a]pyridin-6-yl)-1-acetyl-6-(2,3,5-trifluorophenyl)-2,3-dihydro-1H-imidazo[1,2-a]imidazole-2-carboxylic acid]
IC50 [1, 3]: < 50 nM
IC50 [2, 4]: < 50 nM

CN(C)CCOc1cnc2ccc(-c3c(-c4cc(F)c(F)cc4F)nc4n3CCN4)cc2n1 [Compound 120, N,N-dimethyl-2-((7-(6-(2,4,5-trifluorophenyl)-2,3-dihydro-1H-imidazo[1,2-a]imidazol-5-yl)quinoxalin-2-yl)oxy)ethan-1-amine]
IC50 [1, 3]: < 50 nM
IC50 [2, 4]: < 50 nM

OCC1Cn2c(nc(-c3cc(F)cc(F)c3F)c2-c2ccc3ncnn3c2)N1 (centres unmarked) [Compound 121, (5-([1,2,4]triazolo[1,5-a]pyridin-6-yl)-6-(2,3,5-trifluorophenyl)-2,3-dihydro-1H-imidazo[1,2-a]imidazol-2-yl)methanol]
IC50 [1, 3]: < 50 nM
IC50 [2, 4]: < 50 nM

Fc1cc(F)c(-c2nc3n(c2-c2ccc4ncc(OCCN5CCOCC5)nc4c2)CCN3)cc1F [Compound 122, 4-(2-((7-(6-(2,4,5-trifluorophenyl)-2,3-dihydro-1H-imidazo[1,2-a]imidazol-5-yl)quinoxalin-2-yl)oxy)ethyl)morpholine]
IC50 [1, 3]: 50 to 100 nM
IC50 [2, 4]: 100 to 1000 nM

OCC1Cn2c(nc(-c3cc(F)cc(F)c3F)c2-c2ccc3ncccc3c2)N1 (centres unmarked) [Compound 123, (5-(quinolin-6-yl)-6-(2,3,5-trifluorophenyl)-2,3-dihydro-1H-imidazo[1,2-a]imidazol-2-yl)methanol]
IC50 [1, 3]: 50 to 100 nM
IC50 [2, 4]: 100 to 1000 nM

OCC1Cn2c(nc(-c3cc(F)cc(F)c3F)c2-c2ccc3nccnc3c2)N1 (centres unmarked) [Compound 124, (5-(quinoxalin-6-yl)-6-(2,3,5-trifluorophenyl)-2,3-dihydro-1H-imidazo[1,2-a]imidazol-2-yl)methanol]
IC50 [1, 3]: 100 to 1000 nM
IC50 [2, 4]: 100 to 1000 nM

O=C(O)C1Cn2c(nc(-c3cc(F)cc(F)c3F)c2-c2ccc3nccnc3c2)N1 (centres unmarked) [Compound 125, 5-(quinoxalin-6-yl)-6-(2,3,5-trifluorophenyl)-2,3-dihydro-1H-imidazo[1,2-a]imidazole-2-carboxylic acid]
IC50 [1, 3]: 50 to 100 nM
IC50 [2, 4]: < 50 nM

Fc1ccc(-c2nc3occn3c2-c2ccc3[nH]ncc3c2)cc1 [Compound 126, 6-(4-fluorophenyl)-5-(1H-indazol-5-yl)imidazo[2,1-b]oxazole]
IC50 [1, 3]: < 50 nM
IC50 [2, 4]: 50 to 100 nM

Fc1ccc(-c2nc3occn3c2-c2ccc3ncsc3c2)cc1 [Compound 127, 5-(benzo[d]thiazol-6-yl)-6-(4-fluorophenyl)imidazo[2,1-b]oxazole]
IC50 [1, 3]: < 50 nM
IC50 [2, 4]: < 50 nM

Fc1ccc(-c2nc3occn3c2-c2ccc3cn[nH]c3c2)cc1 [Compound 128, 6-(4-fluorophenyl)-5-(1H-indazol-6-yl)imidazo[1,2-b]oxaozle]
IC50 [1, 3]: 100 to 1000 nM
IC50 [2, 4]: 100 to 1000 nM

Fc1ccc(-c2nc3occn3c2-c2ccc3nccn3c2)cc1 [Compound 129, 6-(4-fluorophenyl)-5-(imidazo[1,2-a]pyridin-6-yl)imidazo[2,1-b]oxazole]
IC50 [1, 3]: < 50 nM
IC50 [2, 4]: 50 to 100 nM

Fc1ccc(-c2nc3occn3c2-c2ccc3nccnc3c2)cc1 [Compound 130, 6-(4-fluorophenyl)-5-(quinoxalin-6-yl)imidazo[2,1-b]oxazole]
IC50 [1, 3]: 100 to 1000 nM
IC50 [2, 4]: 100 to 1000 nM

Fc1ccc(-c2cn3ccoc3n2)cc1F [Compound 131, 6-(3,4-difluorophenyl)imidazo[2,1-b]oxazole]
IC50 [1, 3]: > 1000 nM
IC50 [2, 4]: > 1000 nM

Fc1ccc(-c2nc3occn3c2I)cc1F [Compound 132, 6-(3,4-difluorophenyl)-5-iodoimidazo[2,1-b]oxazole]
IC50 [1, 3]: > 1000 nM
IC50 [2, 4]: > 1000 nM

Fc1ccc(-c2nc3occn3c2-c2ccc3[nH]ncc3c2)cc1F [Compound 133, 6-(3,4-difluorophenyl)-5-(1H-indazol-5-yl)imidazo[2,1-b]oxazole]
IC50 [1, 3]: 50 to 100 nM
IC50 [2, 4]: 50 to 100 nM

Fc1ccc(-c2nc3occn3c2-c2ccc3cn[nH]c3c2)cc1F [Compound 134, 6-(3,4-difluorophenyl)-5-(1H-indazol-6-yl)imidazo[2,1-b]oxazole]
IC50 [1, 3]: 50 to 100 nM
IC50 [2, 4]: 100 to 1000 nM

Fc1ccc(-c2nc3occn3c2-c2ccc3ncsc3c2)cc1F [Compound 135, 5-(benzo[d]thiazol-6-yl)-6-(3,4-difluorophenyl)imidazo[2,1-b]oxazole]
IC50 [1, 3]: < 50 nM
IC50 [2, 4]: 50 to 100 nM

Fc1ccc(-c2nc3occn3c2-c2ccc3nccnc3c2)cc1F [Compound 136, 6-(3,4-difluorophenyl)-5-(quinoxalin-6-yl)imidazo[2,1-b]oxaole]
IC50 [1, 3]: 100 to 1000 nM
IC50 [2, 4]: 100 to 1000 nM

Fc1ccc(-c2nc3occn3c2-c2ccc3nccn3c2)cc1F [Compound 137, 6-(3,4-difluorophenyl)-5-(imidazo[1,2-a]pyridin-6-yl)imidazo[2,1-b]oxazole]
IC50 [1, 3]: < 50 nM
IC50 [2, 4]: 50 to 100 nM

Cc1cccc(-c2nc3occn3c2I)c1 [Compound 138, 5-iodo-6-(m-tolyl)imidazo[2,1-b]oxazole]
IC50 [1, 3]: > 1000 nM
IC50 [2, 4]: > 1000 nM

Cc1cccc(-c2nc3occn3c2-c2ccc3[nH]ncc3c2)c1 [Compound 139, 6-(m-tolyl)-5-(1H-indazol-5-yl)imidazo[2,1-b]oxazole]
IC50 [1, 3]: < 50 nM
IC50 [2, 4]: < 50 nM
